Laboratory results from paper PMC7893052, “Small molecule induces mitochondrial fusion for neuroprotection via targeting CK2 without affecting its conventional kinase activity” (Signal Transduction and Targeted Therapy, 2021).

Assays:
[1] = biological target: T1, casein kinase 2 α′ subunit (CK2α′) (Homo sapiens, UniProt P19784); experiment: ITC ([…]); also SPR KD […], NanoDSF, CETSA, DARTS, pulldown, LC–MS/MS of covalently modified peptide; assay type: binding
T1 construct: gene CSNK2A2; human recombinant CK2α′ protein

[2] = biological target: T2, casein kinase 2 α′ subunit (CK2α′) (Homo sapiens, UniProt P19784, R173A); experiment: ITC; assay type: binding
T2 construct: gene CSNK2A2
T2 sequence (P19784 1-350 R173A): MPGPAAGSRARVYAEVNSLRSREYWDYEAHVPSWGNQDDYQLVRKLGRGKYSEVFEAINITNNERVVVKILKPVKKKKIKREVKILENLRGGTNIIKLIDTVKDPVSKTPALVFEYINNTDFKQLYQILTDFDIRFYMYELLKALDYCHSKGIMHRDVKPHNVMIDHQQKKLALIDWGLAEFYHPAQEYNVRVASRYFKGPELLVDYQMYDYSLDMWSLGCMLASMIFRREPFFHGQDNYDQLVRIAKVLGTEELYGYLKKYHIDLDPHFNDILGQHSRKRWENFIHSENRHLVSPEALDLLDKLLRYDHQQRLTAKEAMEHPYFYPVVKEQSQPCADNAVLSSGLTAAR

T1 sequence (P19784 whole entry): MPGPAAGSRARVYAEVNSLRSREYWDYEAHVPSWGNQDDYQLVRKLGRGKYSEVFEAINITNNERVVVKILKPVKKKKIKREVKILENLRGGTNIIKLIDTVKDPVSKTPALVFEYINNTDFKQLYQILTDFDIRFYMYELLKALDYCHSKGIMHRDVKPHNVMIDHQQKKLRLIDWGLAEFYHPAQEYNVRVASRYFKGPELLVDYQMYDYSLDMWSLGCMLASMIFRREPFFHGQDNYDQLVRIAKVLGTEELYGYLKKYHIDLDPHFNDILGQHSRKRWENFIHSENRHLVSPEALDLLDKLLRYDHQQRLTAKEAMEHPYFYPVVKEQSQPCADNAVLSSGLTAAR

Question: What does the source list for `C[C@@H]1O[C@@H](O[C@@H]2[C@@H](O)[C@H](OCCc3ccc(O)c(O)c3)O[C@H](CO[C@@H]3O[C@H](CO)[C@@H](O)[C@H](O)[C@H]3O)[C@H]2OC(=O)/C=C/c2ccc(O)c(O)c2)[C@H](O)[C@H](O)[C@H]1O` [ECH, echinacoside]?
Answer: Kd [1]: 1060 nM; Kd [2]: 413 nM
